Measured values: ChEMBL document CHEMBL5653631, “A Potent and Selective ULK1 Inhibitor Suppresses Autophagy and Sensitizes Cancer Cells to Nutrient Stress” (iScience, 2018)
One block for each molecule: values may come before it.

Legend:
[1] = target: cAMP-dependent protein kinase catalytic subunit beta (Homo sapiens) (UniProt P22694); assay: Inhibition of human recombinant PKACbeta at 500 nM in presence of ATP by radiometric assay relative to control
[2] = target: T1, Serine/threonine-protein kinase TAO2 (Homo sapiens) (UniProt Q9UL54); assay: Inhibition of human recombinant TAO2 at 500 nM related to control ULK1
T1 sequence (whole entry): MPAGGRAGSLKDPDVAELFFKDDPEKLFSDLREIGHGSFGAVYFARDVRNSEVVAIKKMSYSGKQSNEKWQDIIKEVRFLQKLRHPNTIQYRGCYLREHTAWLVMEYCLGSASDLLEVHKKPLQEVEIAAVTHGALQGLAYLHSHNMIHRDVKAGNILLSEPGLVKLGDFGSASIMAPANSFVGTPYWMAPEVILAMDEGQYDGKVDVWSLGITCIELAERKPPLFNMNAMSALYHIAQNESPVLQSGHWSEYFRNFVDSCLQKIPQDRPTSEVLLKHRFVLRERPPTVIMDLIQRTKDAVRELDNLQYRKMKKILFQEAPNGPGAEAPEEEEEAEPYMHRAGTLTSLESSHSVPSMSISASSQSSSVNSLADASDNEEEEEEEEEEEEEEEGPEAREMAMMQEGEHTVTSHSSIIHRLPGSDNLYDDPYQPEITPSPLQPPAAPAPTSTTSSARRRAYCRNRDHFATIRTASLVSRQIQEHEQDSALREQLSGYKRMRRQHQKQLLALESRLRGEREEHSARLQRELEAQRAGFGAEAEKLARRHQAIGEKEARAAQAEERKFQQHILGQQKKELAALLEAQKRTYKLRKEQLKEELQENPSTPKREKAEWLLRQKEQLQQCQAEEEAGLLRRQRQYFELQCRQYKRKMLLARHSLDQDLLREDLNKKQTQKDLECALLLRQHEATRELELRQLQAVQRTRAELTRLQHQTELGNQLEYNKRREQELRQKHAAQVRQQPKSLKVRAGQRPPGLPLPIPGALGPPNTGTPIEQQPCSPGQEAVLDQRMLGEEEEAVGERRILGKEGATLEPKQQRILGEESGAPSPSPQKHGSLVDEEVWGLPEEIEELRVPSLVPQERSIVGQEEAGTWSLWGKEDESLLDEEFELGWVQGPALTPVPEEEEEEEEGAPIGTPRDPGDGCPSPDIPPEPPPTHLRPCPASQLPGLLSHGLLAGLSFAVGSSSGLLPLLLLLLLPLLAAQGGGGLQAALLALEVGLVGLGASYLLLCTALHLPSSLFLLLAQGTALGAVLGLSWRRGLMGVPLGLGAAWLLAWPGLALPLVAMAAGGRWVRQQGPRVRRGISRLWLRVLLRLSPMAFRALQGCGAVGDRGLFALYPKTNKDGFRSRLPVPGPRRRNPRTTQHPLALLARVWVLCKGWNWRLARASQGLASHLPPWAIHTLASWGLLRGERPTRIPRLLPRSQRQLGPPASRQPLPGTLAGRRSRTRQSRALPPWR

[3] = target: Serine/threonine-protein kinase 38-like (Homo sapiens) (UniProt Q9Y2H1); assay: Inhibition of human recombinant NDR2 at 500 nM related to control ULK1
[4] = target: Calcium/calmodulin-dependent protein kinase kinase 2 (Homo sapiens) (UniProt Q96RR4); assay: Inhibition of human recombinant CaMKK2 at 500 nM related to control ULK1
[5] = target: T2, Inhibitor of nuclear factor kappa-B kinase subunit epsilon (Homo sapiens) (UniProt Q14164); assay: Inhibition of human recombinant IKKe at 500 nM related to control ULK1
T2 sequence (whole entry): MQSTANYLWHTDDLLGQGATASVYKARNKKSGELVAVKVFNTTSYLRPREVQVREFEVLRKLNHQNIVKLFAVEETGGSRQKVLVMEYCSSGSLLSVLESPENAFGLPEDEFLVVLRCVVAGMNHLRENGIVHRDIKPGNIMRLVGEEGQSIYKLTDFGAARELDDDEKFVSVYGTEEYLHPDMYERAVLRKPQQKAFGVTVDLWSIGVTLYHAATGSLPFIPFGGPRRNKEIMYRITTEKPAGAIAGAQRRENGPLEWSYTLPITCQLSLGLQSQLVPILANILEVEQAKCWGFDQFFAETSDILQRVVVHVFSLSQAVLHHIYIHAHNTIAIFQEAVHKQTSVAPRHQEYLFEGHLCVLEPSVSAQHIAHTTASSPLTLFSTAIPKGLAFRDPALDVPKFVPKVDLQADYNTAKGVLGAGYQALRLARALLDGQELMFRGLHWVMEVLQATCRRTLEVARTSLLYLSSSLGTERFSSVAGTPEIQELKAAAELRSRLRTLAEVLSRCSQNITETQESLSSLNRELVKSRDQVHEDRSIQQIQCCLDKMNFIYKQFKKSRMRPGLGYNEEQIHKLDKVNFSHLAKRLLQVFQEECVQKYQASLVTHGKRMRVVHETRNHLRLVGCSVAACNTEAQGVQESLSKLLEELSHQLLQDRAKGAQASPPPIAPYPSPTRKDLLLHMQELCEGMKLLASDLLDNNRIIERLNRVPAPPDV

[6] = target: Fibroblast growth factor receptor 4 (Homo sapiens) (UniProt P22455); assay: Inhibition of human recombinant FGFR4 at 15 nM in presence of ATP by radiometric assay relative to control
[7] = target: Platelet-derived growth factor receptor alpha (Homo sapiens) (UniProt P16234); assay: Inhibition of human recombinant PDGFRa at 40 nM in presence of ATP by radiometric assay relative to control
[8] = target: T3, Serine/threonine-protein kinase STK11 (Homo sapiens) (UniProt Q15831); assay: Inhibition of human recombinant LKB1 at 40 nM in presence of ATP by radiometric assay relative to control
T3 sequence (whole entry): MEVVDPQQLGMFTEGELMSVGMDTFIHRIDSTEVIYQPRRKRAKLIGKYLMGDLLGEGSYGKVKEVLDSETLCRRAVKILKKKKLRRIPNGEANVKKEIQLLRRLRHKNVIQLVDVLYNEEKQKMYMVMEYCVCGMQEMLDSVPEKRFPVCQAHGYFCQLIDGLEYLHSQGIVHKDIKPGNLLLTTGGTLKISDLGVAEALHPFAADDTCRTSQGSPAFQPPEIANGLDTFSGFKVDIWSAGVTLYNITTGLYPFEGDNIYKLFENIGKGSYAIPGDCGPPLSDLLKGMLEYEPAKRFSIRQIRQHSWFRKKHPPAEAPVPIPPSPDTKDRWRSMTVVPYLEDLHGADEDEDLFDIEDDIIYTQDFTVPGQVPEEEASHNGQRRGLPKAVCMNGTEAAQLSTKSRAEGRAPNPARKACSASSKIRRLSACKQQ

[9] = target: G protein-coupled receptor kinase 5 (Homo sapiens) (UniProt P34947); assay: Inhibition of human recombinant GPRK5 at 40 nM related to control ULK1
[10] = target: cAMP-dependent protein kinase catalytic subunit alpha (Homo sapiens) (UniProt P17612); assay: Inhibition of human recombinant PKACalpha at 40 nM related to control ULK1

Sequence of Fibroblast growth factor receptor 4 (Homo sapiens) (P22455 22-802 limits assumed): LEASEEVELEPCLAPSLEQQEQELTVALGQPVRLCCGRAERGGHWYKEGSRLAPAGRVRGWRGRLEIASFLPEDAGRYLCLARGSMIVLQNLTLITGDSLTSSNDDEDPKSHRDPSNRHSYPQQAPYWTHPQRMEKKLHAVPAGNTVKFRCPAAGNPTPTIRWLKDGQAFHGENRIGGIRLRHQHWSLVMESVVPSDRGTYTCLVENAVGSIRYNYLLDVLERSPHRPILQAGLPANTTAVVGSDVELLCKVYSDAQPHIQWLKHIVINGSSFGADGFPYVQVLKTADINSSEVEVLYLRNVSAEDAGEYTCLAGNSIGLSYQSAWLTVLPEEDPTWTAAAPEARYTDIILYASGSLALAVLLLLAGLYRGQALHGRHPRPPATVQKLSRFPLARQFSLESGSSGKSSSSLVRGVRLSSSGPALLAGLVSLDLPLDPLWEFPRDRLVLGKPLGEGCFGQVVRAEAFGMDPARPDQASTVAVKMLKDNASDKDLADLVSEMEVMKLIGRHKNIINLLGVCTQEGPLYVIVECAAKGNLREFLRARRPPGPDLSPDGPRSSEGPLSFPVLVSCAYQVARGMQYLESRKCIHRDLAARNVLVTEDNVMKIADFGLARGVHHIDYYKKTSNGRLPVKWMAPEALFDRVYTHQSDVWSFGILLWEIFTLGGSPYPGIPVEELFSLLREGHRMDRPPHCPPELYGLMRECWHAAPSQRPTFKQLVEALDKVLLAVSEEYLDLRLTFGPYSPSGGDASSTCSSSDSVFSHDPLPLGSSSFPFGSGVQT
Sequence of Serine/threonine-protein kinase 38-like (Homo sapiens) (Q9Y2H1 2-464 limits assumed): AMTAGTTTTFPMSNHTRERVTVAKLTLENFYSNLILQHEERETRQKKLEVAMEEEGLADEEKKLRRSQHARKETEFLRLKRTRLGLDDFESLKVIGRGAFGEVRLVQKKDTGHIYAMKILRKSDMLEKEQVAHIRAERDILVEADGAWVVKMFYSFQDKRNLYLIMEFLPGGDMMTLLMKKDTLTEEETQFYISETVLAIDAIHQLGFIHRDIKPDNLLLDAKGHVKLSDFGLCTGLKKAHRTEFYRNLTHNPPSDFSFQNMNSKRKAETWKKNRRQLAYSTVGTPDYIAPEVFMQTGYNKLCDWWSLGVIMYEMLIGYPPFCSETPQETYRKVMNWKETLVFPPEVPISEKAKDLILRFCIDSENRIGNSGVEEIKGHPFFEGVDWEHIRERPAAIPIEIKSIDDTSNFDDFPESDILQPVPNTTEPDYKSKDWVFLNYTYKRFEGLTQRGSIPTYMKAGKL
Sequence of Calcium/calmodulin-dependent protein kinase kinase 2 (Homo sapiens) (Q96RR4 2-588 limits assumed): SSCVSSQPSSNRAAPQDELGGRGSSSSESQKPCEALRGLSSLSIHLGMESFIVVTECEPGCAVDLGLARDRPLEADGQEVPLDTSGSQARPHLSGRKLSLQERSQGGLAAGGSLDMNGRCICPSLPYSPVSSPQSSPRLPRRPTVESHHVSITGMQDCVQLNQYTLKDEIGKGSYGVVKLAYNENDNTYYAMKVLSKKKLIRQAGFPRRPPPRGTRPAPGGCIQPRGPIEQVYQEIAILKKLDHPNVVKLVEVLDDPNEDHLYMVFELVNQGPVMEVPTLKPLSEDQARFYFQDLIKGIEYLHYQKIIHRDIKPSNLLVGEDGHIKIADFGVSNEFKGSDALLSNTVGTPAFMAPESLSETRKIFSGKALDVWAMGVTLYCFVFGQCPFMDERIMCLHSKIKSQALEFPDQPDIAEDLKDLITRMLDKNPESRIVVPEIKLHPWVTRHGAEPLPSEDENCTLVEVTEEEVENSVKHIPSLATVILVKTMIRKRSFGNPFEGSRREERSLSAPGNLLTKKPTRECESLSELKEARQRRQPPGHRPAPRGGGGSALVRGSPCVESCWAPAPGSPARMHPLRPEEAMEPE
Sequence of G protein-coupled receptor kinase 5 (Homo sapiens) (P34947 whole entry, looked up): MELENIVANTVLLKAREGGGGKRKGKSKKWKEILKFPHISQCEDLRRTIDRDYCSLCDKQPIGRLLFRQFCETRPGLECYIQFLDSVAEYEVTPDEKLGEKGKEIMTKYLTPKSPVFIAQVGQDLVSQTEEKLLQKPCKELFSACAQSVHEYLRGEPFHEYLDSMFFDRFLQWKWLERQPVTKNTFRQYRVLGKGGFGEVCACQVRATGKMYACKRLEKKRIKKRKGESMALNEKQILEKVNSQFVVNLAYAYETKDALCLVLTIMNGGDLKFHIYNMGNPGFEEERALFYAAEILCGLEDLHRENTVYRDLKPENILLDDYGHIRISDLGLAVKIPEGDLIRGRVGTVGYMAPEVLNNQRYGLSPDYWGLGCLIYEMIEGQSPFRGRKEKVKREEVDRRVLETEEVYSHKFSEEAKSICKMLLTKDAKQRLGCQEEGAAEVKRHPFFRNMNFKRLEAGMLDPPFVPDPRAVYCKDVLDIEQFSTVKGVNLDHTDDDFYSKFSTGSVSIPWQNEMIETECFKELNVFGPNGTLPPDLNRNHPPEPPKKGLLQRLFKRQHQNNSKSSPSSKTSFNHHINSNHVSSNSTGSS
Sequence of Platelet-derived growth factor receptor alpha (Homo sapiens) (P16234 whole entry): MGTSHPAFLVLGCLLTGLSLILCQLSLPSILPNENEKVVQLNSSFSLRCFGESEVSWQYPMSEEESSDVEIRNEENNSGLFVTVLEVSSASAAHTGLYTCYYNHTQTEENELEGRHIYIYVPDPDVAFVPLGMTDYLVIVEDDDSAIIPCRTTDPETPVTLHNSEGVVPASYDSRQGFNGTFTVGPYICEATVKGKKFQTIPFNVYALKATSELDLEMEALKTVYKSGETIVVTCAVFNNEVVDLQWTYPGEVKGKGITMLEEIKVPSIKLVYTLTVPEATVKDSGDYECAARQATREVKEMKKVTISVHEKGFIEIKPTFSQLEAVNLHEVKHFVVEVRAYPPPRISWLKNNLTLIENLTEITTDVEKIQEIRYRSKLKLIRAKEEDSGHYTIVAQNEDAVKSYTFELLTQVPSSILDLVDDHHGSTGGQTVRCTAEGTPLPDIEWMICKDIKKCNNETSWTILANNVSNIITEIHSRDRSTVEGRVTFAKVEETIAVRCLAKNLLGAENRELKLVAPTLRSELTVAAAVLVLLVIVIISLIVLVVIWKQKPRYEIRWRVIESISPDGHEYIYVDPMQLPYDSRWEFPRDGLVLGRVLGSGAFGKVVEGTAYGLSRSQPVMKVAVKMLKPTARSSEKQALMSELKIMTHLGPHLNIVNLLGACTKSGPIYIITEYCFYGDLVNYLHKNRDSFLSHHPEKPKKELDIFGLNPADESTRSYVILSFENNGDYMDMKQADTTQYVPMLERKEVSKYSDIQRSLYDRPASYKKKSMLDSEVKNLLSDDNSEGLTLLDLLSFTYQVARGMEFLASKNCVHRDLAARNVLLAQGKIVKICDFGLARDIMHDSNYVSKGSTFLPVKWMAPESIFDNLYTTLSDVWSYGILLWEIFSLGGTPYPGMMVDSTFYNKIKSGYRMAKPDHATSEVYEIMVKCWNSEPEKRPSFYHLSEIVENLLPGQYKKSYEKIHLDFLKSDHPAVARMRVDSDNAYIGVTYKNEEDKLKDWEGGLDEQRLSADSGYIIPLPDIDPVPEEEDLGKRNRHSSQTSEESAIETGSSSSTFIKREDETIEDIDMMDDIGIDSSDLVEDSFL

inhibition [1]: 0%
fold change (FC) [2]: 0
fold change (FC) [3]: 0.2
fold change (FC) [4]: 0.05
fold change (FC) [5]: 0
Structure (SMILES): CNC(=O)c1ccccc1Oc1nc(Nc2cc(OC)c(OC)c(OC)c2)ncc1Br

inhibition [6]: 0%
Structure (SMILES): CC(C)[C@H](NC(=O)c1cc(-c2cnn3cc(-c4ccc(OCCN5CCCCC5)cc4)cnc23)cs1)C(F)(F)F

inhibition [7]: 0%
inhibition [8]: 13%
fold change (FC) [9]: 0.01
fold change (FC) [10]: 0
Structure (SMILES): O=C(N[C@@H](C1CC1)C(F)(F)F)c1cc(-c2cnn3cc(-c4ccc(F)cc4)cnc23)cs1
